In patent publication US20070072242A1, “Immunoassay method and kit to leucomalachite green and malachite green” (Randox Laboratories Limited, priority 2005, published 2007):

What was measured:
[1] = test system: Ig fraction of the antiserum raised to immunogen II (hapten A-BTG); assay: competitive ELISA microtiter plate assay, antiserum to immunogen II with conjugate I (hapten A-HRP); assay type: binding, sheep; settings: for % CR (percentage cross-reactivity based on specificity to leucomalachite green) / IC50 (standard concentration which produces 50% B/B0): Conjugate I (hapten A-HRP); for IC50 (standard concentration which produces 50% B/B0): 37° C. 2 hours; for % B/B0 / A450: Conjugate I
Protocol: (§1) An aqueous solution of immunogen II was formulated with Freund's Complete Adjuvant (FCA) to form an emulsion consisting of 2 mg/ml immunogen in 50% (v/v) FCA. Three sheep were immunised with this emulsion (1° immunisation), 0.25 ml being intramuscularly injected at each of four sites in the rump of each animal. Subsequent immunizations (boosts) contained 1 mg/ml immunogen. All boosts were emulsified in 50% (v/v) Freund's Incomplete Adjuvant (FIA) and were administered in the same manner as the 1° immunisation, at monthly intervals for 1 year. Blood sampling took place 7 to 14 days after each boost. Each sample was processed to produce antiserum, which was further purified by caprylic acid and ammonium sulfate precipitation to yield an immunoglobulin (Ig) fraction. The Ig fraction was evaluated by competitive ELISA microtiter plate assay, as described in Example 12 below.
The wells of an enhanced binding 96 well polystyrene microtiter plate were coated with the Ig fraction of the antiserum raised to immunogen II (hapten A-BTG) (Example 8), diluted in 10 mM Tris, pH8.5 (125 μl/well). The appropriate antibody coating dilution was determined using standard ELISA checkerboard techniques. The plate was incubated for 2 hours at 37° C., washed 4 times with Tris buffered saline containing Tween 20 (TBST) and tapped dry. Standard solutions of leucomalachite green and malachite green were prepared in TBST at 0, 5, 10, 50, 100, 250, 500 and 1000 ng/ml, and 50 μl of each was added to the appropriate wells (FIG. 8).
75 μl of conjugate I (hapten A-HRP) (Example 9), diluted in Tris buffer (pH 7.2) containing EDTA, D-mannitol, sucrose, thimerosal and BSA, was added to each of the wells, as shown in FIG. 8. The appropriate dilution of conjugate was also determined using standard ELISA checkerboard techniques. The plate was incubated at 37° C. for 2 hours. Excess unbound conjugate was removed by washing 6 times over a 10 minute period with TBST. 125 μl of tetramethylbenzidine (TMB) substrate solution was added to each well of the plate that was then incubated for 15 to 20 minutes in the dark at room temperature. The reaction was terminated by addition of 125 μl 0.2M H2SO4 to each well. The absorbance was then measured at 450 nm using a microtiter plate reader.

Bioo Kit antibodies = settings: information provided by Bioo Scientific; kit designed to detect malachite green only; cited from earlier work
[2] = test system: Ig fraction of the antiserum raised to immunogen II (hapten A-BTG); assay: competitive ELISA microtiter plate assay, antiserum to immunogen II with Conjugate II (hapten C-HRP); assay type: binding, sheep; settings: for % CR (percentage cross-reactivity based on specificity to leucomalachite green) / IC50 (standard concentration which produces 50% B/B0): Conjugate II (hapten C-HRP); for IC50 (standard concentration which produces 50% B/B0): 25° C. 1 hour; for % B/B0 / A450: Conjugate II
Protocol: as §1
The wells of an enhanced binding 96 well polystyrene microtiter plate were coated with the Ig fraction of the antiserum raised to immunogen II (hapten A-BTG) (Example 8), diluted in 10 mM Tris, pH8.5 (125 μl/well). The appropriate antibody coating dilution was determined using standard ELISA checkerboard techniques. The plate was incubated for 2 hours at 37° C., washed 4 times with Tris buffered saline containing Tween 20 (TBST) and tapped dry. […]
75 μl of conjugate C (hapten C-HRP) (Example 10), diluted in Tris buffer (pH 7.2) containing EDTA, D-mannitol, sucrose, thimerosal and BSA, was added to each of the wells, as shown in FIG. 8. The appropriate dilution of conjugate was also determined using standard ELISA checkerboard techniques.
The plate was incubated at 25° C. for 1 hour. Excess unbound conjugate was removed by washing 6 times over a 10-15 minute period with TBST.
125 μl of tetramethylbenzidine (TMB) substrate solution was added to each well of the plate that was then incubated for 20 minutes in the dark at room temperature. The reaction was terminated by addition of 100 ul 0.2 M H2SO4 to each well. The absorbance was then measured at 450 nm using a microtiter plate reader.

[3] = standard concentration 10 ng/ml
[4] = standard concentration 50 ng/ml
[5] = standard concentration 100 ng/ml
[6] = standard concentration 250 ng/ml
[7] = standard concentration 500 ng/ml
[8] = standard concentration 1000 ng/ml
[9] = standard concentration 0.5 ng/ml

SMILES	% CR (percentage cross-reactivity based on specificity to leucomalachite green) [1]	IC50 (standard concentration which produces 50% B/B0) [1]	% B/B0 ([1]; standard concentration 5 ng/ml)	A450 ([1]; standard concentration 5 ng/ml)	% B/B0 [1, 3]	A450 [1, 3]	% B/B0 [1, 4]	A450 [1, 4]	% B/B0 [1, 5]	A450 [1, 5]	% B/B0 [1, 6]	A450 [1, 6]	% B/B0 [1, 7]	A450 [1, 7]	% B/B0 [1, 8]	A450 [1, 8]	% CR (percentage cross-reactivity based on specificity to leucomalachite green) [2]	IC50 (standard concentration which produces 50% B/B0) [2]	% B/B0 [2, 9]	A450 [2, 9]	further results
CN(C)c1ccc(C(c2ccccc2)c2ccc(N(C)C)cc2)cc1 [Leucomalachite Green, leucomalachite green]	100%	0.02733 µg/mL	76.0%	1.378	67.5%	1.225	42.0%	0.762	30.2%	0.547	20.2%	0.366	13.6%	0.247	9.8%	0.178	100%	0.00374 µg/mL	90%	1.550	cross-reactivity (Bioo Kit antibodies): 1%; % B/B0 ([2]; standard concentration 1 ng/ml): 77%; A450 ([2]; standard concentration 1 ng/ml): 1.323; % B/B0 ([2]; standard concentration 5 ng/ml): 45%; A450 ([2]; standard concentration 5 ng/ml): 0.772; % B/B0 [2, 3]: 31%; A450 [2, 3]: 0.538; % B/B0 [2, 4]: 11%; A450 [2, 4]: 0.184
CN(C)c1ccc(C(=C2C=CC(=[N+](C)C)C=C2)c2ccccc2)cc1 [Malachite Green, malachite green]	26.43%	0.10339 µg/mL	85.2%	1.440	82.3%	1.392	63.6%	1.075	51.4%	0.869	39.3%	0.664	30.8%	0.520	24.6%	0.416	26.8%	0.013962 µg/mL	95%	1.611	% B/B0 ([2]; standard concentration 1 ng/ml): 89%; A450 ([2]; standard concentration 1 ng/ml): 1.504; % B/B0 ([2]; standard concentration 5 ng/ml): 67%; A450 ([2]; standard concentration 5 ng/ml): 1.137; % B/B0 [2, 3]: 57%; A450 [2, 3]: 0.967; % B/B0 [2, 4]: 29%; A450 [2, 4]: 0.497; % B/B0 [2, 5]: 20%; A450 [2, 5]: 0.342; % B/B0 [2, 6]: 13%; A450 [2, 6]: 0.227; % B/B0 [2, 7]: 11%; A450 [2, 7]: 0.184; % B/B0 [2, 8]: 7%; A450 [2, 8]: 0.113
